Values after ≈ are worked out from the molar mass of the structure shown. Structures can show the parent of a compound that is named as a salt. One block for each molecule: values may come before it.
Assays:
[1] = Solubility in water and in 0.1N HCl (1 hour shaking at room temperature, UV-spectroscopy); format: physicochemical
Description: An excess of compound was added to 5 ml of solvent (the type of solvent is specified in the table). The mixture was shaken during 1 hour at room temperature. The precipitate was filtered off. The concentration of the compound was measured via UV-spectroscopy and is shown in the column "Solubility".

Candida albicans [2] = experiment: Mouse triple mycosis model: vaginal candidosis; format: in vivo; parameters: unit not given here; settings: treatment for 5 days, mice
Description: (§1) The test compounds were evaluated for their activity in a mouse model of fungal infection in which three mycoses--vaginal candidosis, cutaneous trichophytosis and disseminated aspergillosis--were established simultaneously. The mice, in groups of 10, were pretreated with subcutaneous injections of oestradiol valerate (500 μg) then inoculated on day 0 with the following: 100 000 colony forming units (CFU)/g of Aspergillus fumigatus B 19119 intravenously, a suspension containing 10^8 Candida albicans cells intravaginally and a aqueous suspension of Trichophyton quinckeanum on lightly scarified dorsal skin. Treatment with the test compounds (orally or intravenously) was begun on the day of infection and continued for 5 days.

Trichophyton quinckeanum = experiment: Mouse triple mycosis model: cutaneous dermatophytosis (trichophytosis); format: in vivo; parameters: unit not given here; settings: treatment for 5 days, mice
Description: as §1

Candida albicans [3] = experiment: Mouse disseminated Candida model; format: in vivo; settings: IV route; treatment repeated daily for 9 days; mice
Description: Mice in groups of 10 were infected intravenously with 8×10^5 CFU of Candida albicans. Treatment was begun on the day of infection and repeated daily for 9 days. Candida albicans CFU/g kidney were measured for all mice that died spontaneously or were killed on day 10.
The table indicates the lowest concentrations of the shown compounds that achieved a reduction in mean Candida counts of 1 log (i.e. a 10-fold reduction) or more, either in the triple mycosis model or the disseminated Candida infection; also the lowest concentrations that reduced mean skin scores below 1.0 in the cutaneous dermatophytosis component of this model (NT=nor tested, IV=intravenous).

[4] = water, solvent: water, measured pH 6.65 to 7.01
[5] = 0.1n hcl, solvent: 0.1N HCl, measured pH 1.25 to 1.75

Compound: CC(C)(C)C(Cn1ncn(-c2ccc(N3CCN(c4ccc(OC[C@H]5CO[C@](Cn6cncn6)(c6ccc(F)cc6F)O5)cc4)CC3)cc2)c1=O)OP(=O)(O)Oc1ccccc1 (mixture of isomers) [Compound 2, (±)-cis-1-[[4-[4-[4-[4-[[2-(2,4-difluorophenyl)-2-(1H-1,2,4-triazol-1-ylmethyl)-1,3-dioxolan-4-yl]methoxy]phenyl]-1-piperazinyl]phenyl]-4,5-dihydro-5-oxo-1H-1,2,4-triazol-1-yl]methyl]-2,2-dimethylpropyl phenyl sodium phosphate]
solubility at 1 h ([1]; solvent: water, measured pH 6.65 to 7.01): > 6000 µg/mL

Compound: CC(C)(C)C(Cn1ncn(-c2ccc(N3CCN(c4ccc(OC[C@H]5CO[C@](Cn6cncn6)(c6ccc(F)cc6F)O5)cc4)CC3)cc2)c1=O)OP(=O)(O)O (mixture of isomers) [Compound 17, (±)-cis-4-[4-[4-[4-[[2-(2,4-difluorophenyl)-2-(1H-1,2,4-triazol-1-ylmethyl)-1,3-dioxolan-4-yl]methoxy]phenyl]-1-piperazinyl]phenyl]-2-[3,3-dimethyl-2-(phosphonooxy)butyl]-2,4-dihydro-3H-1,2,4-triazol-3-one hemihydrate]
lowest concentration, Vaginal Candida CFU reduced by 1 log or more (Candida albicans [2]; IV route, hemihydrate): < 2.5 | lowest concentration, Dermatophyte skin score reduced to ≤1 (Trichophyton quinckeanum; IV route, hemihydrate): < 2.5

Compound: CN1CCN(CC(=O)OC(Cn2ncn(-c3ccc(N4CCN(c5ccc(OC[C@H]6CO[C@](Cn7cncn7)(c7ccc(F)cc7F)O6)cc5)CC4)cc3)c2=O)C(C)(C)C)CC1 (mixture of isomers) [Compound 34, (±)-cis-1-[[4-[4-[4-[4-[[2-(2,4-difluorophenyl)-2-(1H-1,2,4-triazol-1-ylmethyl)-1,3-dioxolan-4-yl]methoxy]phenyl]-1-piperazinyl]phenyl]-4,5-dihydro-5-oxo-1H-1,2,4-triazol-1-yl]methyl]-2,2-dimethylpropyl 4-methyl-1-piperazineacetate monohydrochloride]
Solubility ([1]; solvent: 0.1N HCl, measured pH 1.25 to 1.75, monohydrochloride, 60 min): > 6000 µg/mL | lowest concentration, Vaginal Candida CFU reduced by 1 log or more (Candida albicans [2]; IV route): 2.5 | lowest concentration, Vaginal Candida CFU reduced by 1 log or more (Candida albicans [2]; oral route): 2.5 | lowest concentration, Dermatophyte skin score reduced to ≤1 (Trichophyton quinckeanum; IV route): 2.5 | lowest concentration, Dermatophyte skin score reduced to ≤1 (Trichophyton quinckeanum; oral route): 2.5 | lowest concentration, Kidney Candida CFU reduced by 1 log or more (Candida albicans [3]): 5

Compound: CN1CCN(CC(=O)OC(Cn2ncn(-c3ccc(N4CCN(c5ccc(OC[C@H]6CO[C@](Cn7cncn7)(c7ccc(F)cc7F)O6)cc5)CC4)cc3)c2=O)C(C)(C)C)CC1 (stereo partly drawn) [Compound 29]
solubility at 1 h [1, 5]: 4890 µg/mL (≈ 5.71 mM)

Compound: CC(C)(C)C(Cn1ncn(-c2ccc(N3CCN(c4ccc(OC[C@H]5CO[C@](Cn6cncn6)(c6ccc(F)cc6F)O5)cc4)CC3)cc2)c1=O)OC(=O)CN1CCN(CCO)CC1 (stereo partly drawn) [Compound 31]
solubility at 1 h [1, 5]: > 6000 µg/mL

Compound: CN1CCN(CCC(=O)OC(Cn2ncn(-c3ccc(N4CCN(c5ccc(OC[C@H]6CO[C@](Cn7cncn7)(c7ccc(F)cc7F)O6)cc5)CC4)cc3)c2=O)C(C)(C)C)CC1 (stereo partly drawn) [Compound 33]
solubility at 1 h [1, 5]: > 6000 µg/mL

Further lines, with some results ahead:

solubility at 1 h [1, 4]: 31900 µg/mL
Compound: CC(C)(C)C(Cn1ncn(-c2ccc(N3CCN(c4ccc(OC[C@H]5CO[C@](Cn6cncn6)(c6ccc(F)cc6F)O5)cc4)CC3)cc2)c1=O)OP(=O)(O)O (mixture of isomers) [Compound 3, (±)-ammonium cis-1-[[4-[4-[4-[4-[[2-(2,4-difluorophenyl)-2-(1H-1,2,4-triazol-1-ylmethyl)-1,3-dioxolan-4-yl]methoxy]phenyl]-1-piperazinyl]phenyl]-4,5-dihydro-5-oxo-1H-1,2,4-triazol-1-yl]methyl]-2,2-dimethylpropyl phosphate]
lowest concentration, Vaginal Candida CFU reduced by 1 log or more (Candida albicans [2]; IV route): 2.5 | lowest concentration, Vaginal Candida CFU reduced by 1 log or more (Candida albicans [2]; oral route): 2.5 | lowest concentration, Dermatophyte skin score reduced to ≤1 (Trichophyton quinckeanum; IV route): 2.5 | lowest concentration, Dermatophyte skin score reduced to ≤1 (Trichophyton quinckeanum; oral route): 2.5 | lowest concentration, Kidney Candida CFU reduced by 1 log or more (Candida albicans [3]): 10

solubility at 1 h [1, 4]: 350 µg/mL
Compound: CC(C)(C)C(Cn1ncn(-c2ccc(N3CCN(c4ccc(OC[C@H]5CO[C@](Cn6cncn6)(c6ccc(Cl)cc6)O5)cc4)CC3)cc2)c1=O)OP(=O)(O)O (mixture of isomers) [Compound 7, (±)-ammonium cis-1-[[4-[4-[4-[4-[[2-(4-chlorophenyl)-2-(1H-1,2,4-triazol-1-yl-methyl)-1,3-dioxolan-4-yl]methoxy]phenyl]-1-piperazinyl]phenyl]-4,5-dihydro-5-oxo-1H-1,2,4-triazol-1-yl]methyl]-2,2-dimethylpropyl phosphate(ester) monohydrate]

solubility at 1 h [1, 4]: 2650 µg/mL
Compound: CC(C)(C)C(Cn1ncn(-c2ccc(N3CCN(c4ccc(OC[C@H]5CO[C@](Cn6cncn6)(c6ccc(F)cc6)O5)cc4)CC3)cc2)c1=O)OP(=O)(O)O (mixture of isomers) [Compound 9, (±)-ammonium cis-1-[[4-[4-[4-[4-[[2-(4-fluorophenyl)-2-(1H-1,2,4-triazol-1-ylmethyl)-1,3-dioxolan-4-yl]methoxy]phenyl]-1-piperazinyl]phenyl]-4,5-dihydro-5-oxo-1H-1,2,4-triazol-1-yl]methyl]-2,2-dimethylpropyl phosphate]

solubility at 1 h [1, 5]: > 6000 µg/mL
Compound: CC(C)(C)C(Cn1ncn(-c2ccc(N3CCN(c4ccc(OC[C@H]5CO[C@](Cn6cncn6)(c6ccc(F)cc6F)O5)cc4)CC3)cc2)c1=O)OC(=O)CCN (mixture of isomers) [Compound 36, (±)-cis-1-[[4-[4-[4-[4-[[2-(2,4-difluorophenyl)-2-(1H-1,2,4-triazol-1-ylmethyl)-1,3-dioxolan-4-yl]methoxy]phenyl]-1-piperazinyl]phenyl]-4,5-dihydro-5-oxo-1H-1,2,4-triazol-1-yl]methyl]-2,2-dimethylpropyl β-alanine monohydrochloride]

solubility at 1 h [1, 5]: > 6000 µg/mL
Compound: CC(C)(C)C(Cn1ncn(-c2ccc(N3CCN(c4ccc(OC[C@H]5CO[C@](Cn6cncn6)(c6ccc(F)cc6F)O5)cc4)CC3)cc2)c1=O)OC(=O)CCN1CCCC1 (mixture of isomers) [Compound 37, (±)-cis-1-[[4-[4-[4-[4-[[2-(2,4-difluorophenyl)-2-(1H-1,2,4-triazol-1-ylmethyl)-1,3-dioxolan-4-yl]methoxy]phenyl]-1-piperazinyl]phenyl]-4,5-dihydro-5-oxo-1H-1,2,4-triazol-1-yl]methyl]-2,2-dimethylpropyl 1-pyrrolidinepropanoate . monohydrochloride . monohydrate]

solubility at 1 h [1, 5]: 5220 µg/mL (≈ 6.29 mM)
Compound: CCN(CC)CC(=O)OC(Cn1ncn(-c2ccc(N3CCN(c4ccc(OC[C@H]5CO[C@](Cn6cncn6)(c6ccc(F)cc6F)O5)cc4)CC3)cc2)c1=O)C(C)(C)C (stereo partly drawn) [Compound 30]

solubility at 1 h [1, 5]: > 6000 µg/mL
Compound: CC(C)(C)C(Cn1ncn(-c2ccc(N3CCN(c4ccc(OC[C@H]5CO[C@](Cn6cncn6)(c6ccc(F)cc6F)O5)cc4)CC3)cc2)c1=O)OC(=O)CN (stereo partly drawn) [Compound 38]
